Tests used:
[1] = target: T1, c-Met receptor tyrosine kinase, GST-c-Met(969-1390) (Homo sapiens, UniProt P08581); test: EPK c-Met profiling assay (LanthaScreen TR-FRET kinase assay); format: biochemical; conditions: 2 μM ATP, 0.3 nM enzyme, 60 minutes at room temperature
T1 construct: made in house
In short: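 Recombinant GST-c-Met(969-1390) cytoplasmic domain, 0.3 nM, phosphorylating 50 nM Fluorescein-PolyEAY with 2 μM ATP, 10 mM MgCl2, 3 mM MnCl2, 60 min at room temperature. EDTA-stopped; phosphoproduct detected by TR-FRET with Tb-PY20 antibody, end-point read. Final compound 0.003-10 μM over 8 concentrations.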

[2] = system: MET-amplified gastric cancer cell line GTL-16; test: GTL-16 proliferation assay (MTS); format: cell-based; conditions: Homo sapiens, GTL-16 cells, 72 h incubation
In short: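 GTL-16 cells were seeded at 3000/well in DMEM with 10% FCS. After 24 h they were treated in triplicate with a 10-point, 3-fold dilution series ([…]; DMSO-only control) for 72 h. Viable cells were measured by MTS, with OD 490 nm read after 30 min.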

[3] = target: T2, c-Met (Homo sapiens, UniProt P08581); test: GTL-16 c-Met autophosphorylation measured by AlphaScreen detection; format: cell-based; conditions: GTL-16 cells, 1 h incubation, AlphaScreen p-c-Met; read-out: GTL-16 IC50 c-Met phosphorylation
T2 construct: adapted to measure the phosphorylation of endogenous cellular proteins in cell lysates; endogenous in cells; host or cells: GTL-16
In short: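 GTL-16 MET-amplified gastric cancer cells, serum-free DMEM with 0.1% BSA, exposed to 8-point compound dilutions for 1 h at 37° C (0.11% DMSO final). Lysates probed for phospho-c-Met by AlphaScreen using anti-c-Met antibody, biotinylated PY20 phosphotyrosine antibody, Protein A acceptor and streptavidin donor beads.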

T1 sequence (P08581 969-1390): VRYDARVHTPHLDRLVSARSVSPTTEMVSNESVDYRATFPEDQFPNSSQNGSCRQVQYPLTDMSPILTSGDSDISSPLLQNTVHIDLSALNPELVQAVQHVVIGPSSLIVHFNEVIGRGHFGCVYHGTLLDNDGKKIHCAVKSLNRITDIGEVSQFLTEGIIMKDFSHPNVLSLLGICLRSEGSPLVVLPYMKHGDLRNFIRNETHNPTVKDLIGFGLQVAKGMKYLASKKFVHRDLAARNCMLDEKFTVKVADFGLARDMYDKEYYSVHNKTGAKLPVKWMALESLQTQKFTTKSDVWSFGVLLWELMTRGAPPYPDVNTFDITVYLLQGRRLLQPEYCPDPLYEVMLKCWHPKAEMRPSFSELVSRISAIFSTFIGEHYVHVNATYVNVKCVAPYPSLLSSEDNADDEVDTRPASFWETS
T2 sequence (P08581 25-1390): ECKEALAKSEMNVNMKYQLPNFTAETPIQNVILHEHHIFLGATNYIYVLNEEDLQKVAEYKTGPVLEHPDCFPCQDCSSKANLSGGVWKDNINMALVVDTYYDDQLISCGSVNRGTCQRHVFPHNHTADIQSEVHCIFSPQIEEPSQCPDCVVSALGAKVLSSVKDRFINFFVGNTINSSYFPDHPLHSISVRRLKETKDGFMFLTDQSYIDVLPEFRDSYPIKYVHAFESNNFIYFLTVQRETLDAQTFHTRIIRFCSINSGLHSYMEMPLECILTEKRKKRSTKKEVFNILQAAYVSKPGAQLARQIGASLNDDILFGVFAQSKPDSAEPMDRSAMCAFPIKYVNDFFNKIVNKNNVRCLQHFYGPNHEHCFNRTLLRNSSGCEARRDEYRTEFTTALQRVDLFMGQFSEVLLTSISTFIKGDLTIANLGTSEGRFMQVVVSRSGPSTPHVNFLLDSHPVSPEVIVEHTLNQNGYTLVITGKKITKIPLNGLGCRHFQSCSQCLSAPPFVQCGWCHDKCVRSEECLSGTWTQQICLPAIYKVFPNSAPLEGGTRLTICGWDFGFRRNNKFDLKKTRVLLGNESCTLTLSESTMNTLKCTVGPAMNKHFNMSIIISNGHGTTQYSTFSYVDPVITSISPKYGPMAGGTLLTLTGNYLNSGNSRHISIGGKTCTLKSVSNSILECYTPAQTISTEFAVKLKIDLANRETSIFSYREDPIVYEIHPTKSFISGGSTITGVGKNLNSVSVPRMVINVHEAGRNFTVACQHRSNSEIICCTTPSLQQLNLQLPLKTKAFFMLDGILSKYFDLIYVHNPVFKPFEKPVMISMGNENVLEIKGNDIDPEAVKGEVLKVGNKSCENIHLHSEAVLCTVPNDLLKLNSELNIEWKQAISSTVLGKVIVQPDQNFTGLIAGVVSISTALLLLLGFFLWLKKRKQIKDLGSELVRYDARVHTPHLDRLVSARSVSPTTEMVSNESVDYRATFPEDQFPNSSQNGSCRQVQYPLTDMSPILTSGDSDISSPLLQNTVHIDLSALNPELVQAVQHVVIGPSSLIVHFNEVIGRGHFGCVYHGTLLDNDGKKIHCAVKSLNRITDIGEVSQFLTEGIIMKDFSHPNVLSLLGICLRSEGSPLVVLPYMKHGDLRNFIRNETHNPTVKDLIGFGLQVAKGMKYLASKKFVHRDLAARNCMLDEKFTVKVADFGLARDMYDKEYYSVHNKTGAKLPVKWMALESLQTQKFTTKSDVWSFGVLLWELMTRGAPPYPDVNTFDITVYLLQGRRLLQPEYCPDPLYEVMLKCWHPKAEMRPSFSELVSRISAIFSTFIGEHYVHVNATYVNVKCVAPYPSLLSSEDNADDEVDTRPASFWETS

Question: Which results are given for `O=CN1CCN(c2ccc3ncc(Cc4c(F)cc5ncccc5c4F)n3n2)CC1` [Example 35, 4-[3-(5,7-Difluoro-quinolin-6-ylmethyl)-imidazo[1,2-b]pyridazin-6-yl]-piperazine-1-carbaldehyde]?
Answer: IC50 [1]: 9.9 nM; IC50 [2]: 45 nM; IC50 [3]: 8 nM

Question: How did the IC50 [1] turn out when `COC(=O)N1CCN(c2ccc3ncc(Cc4c(F)cc5ncccc5c4F)n3n2)CC1` [Example 36, 4-[3-(5,7-Difluoro-quinolin-6-ylmethyl)-imidazo[1,2-b]pyridazin-6-yl]-piperazine-1-carboxylic acid methyl ester] was run?
Answer: Its IC50 is 11 nM.

Question: What about the IC50 [2] of the same compound?
Answer: The IC50 was 25 nM.

Question: And the IC50 [3]?
Answer: Its IC50 is < 3 nM.

Question: With `O=C1CN(c2ccc3ncc(Cc4ccc5ncccc5c4F)n3n2)CCN1` [Example 44, 4-[3-(5-Fluoro-quinolin-6-ylmethyl)-imidazo[1,2-b]pyridazin-6-yl]-piperazin-2-one] as the compound, how does the IC50 [1] read?
Answer: Its IC50 is 14 nM.

Question: What about the IC50 [2] of the same compound?
Answer: The IC50 was 133 nM.

Question: What about the IC50 [3] of the same compound?
Answer: Its IC50 is 31 nM.

Question: Which IC50 [1] does the source give for `C[C@@H](c1c(F)cc2c(cnn2C)c1F)c1cnc2ccc(N3CCN(C)C(=O)C3)nn12` [Example 50, 4-{3-[(S)-1-(4,6-Difluoro-1-methyl-1H-indazol-5-yl)-ethyl]-imidazo[1,2-b]pyridazin-6-yl}-1-methyl-piperazin-2-one] here?
Answer: Its IC50 is 8.3 nM.

Question: What about the IC50 [2] of the same compound?
Answer: The IC50 was 11 nM.

Question: And the IC50 [3]?
Answer: Its IC50 is 2.7 nM.

Question: How did the IC50 [1] turn out when `C[C@@H](c1c(F)cc2c(cnn2C)c1F)c1cnc2ccc(N3CCNC(=O)C3)nn12` [Example 52, 4-{3-[(S)-1-(4,6-Difluoro-1-methyl-1H-indazol-5-yl)-ethyl]-imidazo[1,2-b]pyridazin-6-yl}-piperazin-2-one] was run?
Answer: Its IC50 is < 3 nM.

Question: And the IC50 [2]?
Answer: Its IC50 is 11 nM.

Question: And the IC50 [3]?
Answer: Its IC50 is 2.2 nM.

Question: How did the IC50 [1] turn out when `CC(=O)N1CCN(c2ccc3ncc([C@@H](C)c4c(F)cc5c(cnn5C)c4F)n3n2)CC1` [Example 53, 1-(4-{3-[(S)-1-(4,6-Difluoro-1-methyl-1H-indazol-5-yl)-ethyl]-imidazo[1,2-b]pyridazin-6-yl}-piperazin-1-yl)-ethanone] was run?
Answer: The IC50 was 5.2 nM.

Question: And the IC50 [2]?
Answer: The IC50 was 22 nM.

Question: And the IC50 [3]?
Answer: Its IC50 is 4.4 nM.

Question: Which results are given for `Cn1ncc2c(F)c(Cc3cnc4ccc(N5CCNC(=O)C5)nn34)c(F)cc21` [Example 54, 4-[3-(4,6-Difluoro-1-methyl-1H-indazol-5-ylmethyl)-imidazo[1,2-b]pyridazin-6-yl]-piperazin-2-one]?
Answer: IC50 [1]: 20 nM; IC50 [2]: 36 nM; IC50 [3]: < 3 nM

Question: With `C[C@@H](c1c(F)cc2ncccc2c1F)c1cnc2ccc(N3CCNC(=O)[C@H]3C)nn12` [Example 59, (R)-4-{3-[(S)-1-(5,7-Difluoro-quinolin-6-yl)-ethyl]-imidazo[1,2-b]pyridazin-6-yl}-3-methyl-piperazin-2-one] as the compound, how does the IC50 [1] read?
Answer: The IC50 was 3 nM.

Question: And the IC50 [2]?
Answer: The IC50 was 5.6 nM.

Question: And the IC50 [3]?
Answer: Its IC50 is 3.6 nM.

Question: With `C[C@@H](c1c(F)cc2ncccc2c1F)c1cnc2ccc(N3CCNC(=O)[C@@H]3C)nn12` [Example 60, (S)-4-{3-[(S)-1-(5,7-Difluoro-quinolin-6-yl)-ethyl]-imidazo[1,2-b]pyridazin-6-yl}-3-methyl-piperazin-2-one] as the compound, how does the IC50 [1] read?
Answer: Its IC50 is 2.6 nM.

Question: What about the IC50 [2] of the same compound?
Answer: The IC50 was 4.8 nM.

Question: What about the IC50 [3] of the same compound?
Answer: The IC50 was 2.3 nM.

Source: US8389526B2, “3-heteroarylmethyl-imidazo[1,2-b]pyridazin-6-yl derivatives” (Novartis AG, priority 2009, dated 2013)
